Earlier results in patent US10950327B2, “Methods and tools for detecting, diagnosing, predicting, prognosticating, or treating a neurobehavioral phenotype in a subject” (BlackThorn Therapeutics, Inc., priority 2017, dated 2021).

Assays:
[1] = tested on: mean functional connectivity (Global Brain Connectivity, GBC); conditions: healthy human subjects
[2] = tested on: patients with schizophrenia
[3] = in vivo
5HT6 receptors = 5HT6 receptors (Homo sapiens, UniProt P50406)
[4] = target: muscarinic M3 (CHRM3) receptor (Homo sapiens, UniProt P20309)
Sequence of muscarinic M3 (CHRM3) receptor (P20309 whole entry): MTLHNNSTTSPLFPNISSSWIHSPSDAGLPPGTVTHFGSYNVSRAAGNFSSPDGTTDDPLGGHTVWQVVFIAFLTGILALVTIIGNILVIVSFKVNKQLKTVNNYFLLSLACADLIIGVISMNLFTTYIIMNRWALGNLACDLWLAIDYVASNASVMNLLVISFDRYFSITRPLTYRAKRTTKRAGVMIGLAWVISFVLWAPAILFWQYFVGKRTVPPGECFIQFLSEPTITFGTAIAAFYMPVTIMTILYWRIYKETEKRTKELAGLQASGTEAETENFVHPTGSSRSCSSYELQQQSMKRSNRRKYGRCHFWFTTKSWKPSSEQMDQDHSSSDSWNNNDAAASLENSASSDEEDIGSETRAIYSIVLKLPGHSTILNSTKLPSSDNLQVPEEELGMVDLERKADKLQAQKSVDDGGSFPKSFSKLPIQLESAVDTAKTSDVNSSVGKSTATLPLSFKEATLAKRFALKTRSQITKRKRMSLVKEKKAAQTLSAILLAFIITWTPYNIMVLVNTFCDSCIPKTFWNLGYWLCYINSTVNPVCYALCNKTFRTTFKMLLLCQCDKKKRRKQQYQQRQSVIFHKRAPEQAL

Sequence of 5HT6 receptors (P50406 whole entry): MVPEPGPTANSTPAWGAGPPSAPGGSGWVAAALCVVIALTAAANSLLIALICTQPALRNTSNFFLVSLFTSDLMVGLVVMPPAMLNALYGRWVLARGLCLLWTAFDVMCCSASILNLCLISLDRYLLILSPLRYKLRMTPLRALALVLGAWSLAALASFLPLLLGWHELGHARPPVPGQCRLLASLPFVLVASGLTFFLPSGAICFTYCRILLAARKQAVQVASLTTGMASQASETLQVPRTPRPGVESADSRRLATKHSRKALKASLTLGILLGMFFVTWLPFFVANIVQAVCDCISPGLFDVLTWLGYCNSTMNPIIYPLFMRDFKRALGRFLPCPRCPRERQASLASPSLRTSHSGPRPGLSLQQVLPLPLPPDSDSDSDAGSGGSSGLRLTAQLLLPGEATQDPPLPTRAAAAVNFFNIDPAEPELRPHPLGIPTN

CCN(CC)C(=O)[C@@H]1C=C2c3cccc4[nH]cc(c34)C[C@H]2N(C)C1 [LSD, lysergic acid diethylamide]
change in mean functional connectivity (Global Brain Connectivity, GBC) ([1]; acute administration, fMRI-derived cortical map): large increase in occipital visual cortex

Cc1nc2cccc(C(F)(F)F)c2c(=O)n1-c1ccc(OCCCN2CCCC2)cc1 [MK-0249]
improvement of cognitive deficits [2]: failed to improve cognitive deficits

O=C1Nc2ccc(Cl)cc2[C@@](C#CC2CC2)(C(F)(F)F)O1 [efavirenz]
suppression of HIV-1 (HIV-1): effective in suppressing HIV-1
risk of neuropsychiatric symptoms [3]: increase the risk of neuropsychiatric symptoms
activity at 5HT6 receptors (5HT6 receptors): inverse agonist activity
activity at muscarinic M3 (CHRM3) receptor [4]: antagonist activity

O=C(c1ccc(F)cc1)C1CCN(CCn2c(=O)[nH]c3ccccc3c2=O)CC1 [ketanserin]
effect on LSD-induced neural change and behavioral effects ([1]; pre-administration before LSD): blocked
